Source: patent US6828450B2, “Triptycene analogs” (Kansas State University Research Foundation, priority 2000, dated 2004)
Several values for one entry are separate records, joined by “and”; a condition that tells them apart may be missing. Equal entries are not always repeated. Where two headings read alike, the source gives them in different places.

What was measured:
[1] = system: Plasmodium falciparum 3D7; experiment: Antimalarial activity, inhibition of Plasmodium falciparum 3D7; type: cell-based; conditions: malaria strain 3D7
HL-60-S cells [2] = experiment: DNA cleavage in HL-60-S cells; type: cell-based, human; conditions: 24 h
Protocol: (§1) FIG. 23. Comparison of the concentration-dependent inductions of DNA cleavage by DAU (open symbols in A) and TT2 (closed symbols in B) at 24 h in HL-60-S (circles), HL-60-RV (squares) and HL-60-R8 (triangles) cells containing ^3H-prelabeled DNA in vitro. Results are expressed as [cpm in supernatant/cpm in supernatant+pellet]×100 at 24 h. For untreated controls (14.7±1.7% DNA fragmentation, striped areas), the supernatant (DNA fragments) is 12,815±1,358 cpm and the pellet (intact DNA) is 74,406±9,078 cpm.
(§2) The MDR HL-60-RV and HL-60-R8 cells were developed in Melvin S. Center's laboratory (Kansas State University) and similarly maintained in RPMI 1640 medium in the absence of drugs (Marsh W, et al, Cancer Res 46: 4053-4057, 1986; McGrath T et al, and Center M S: Biochem Biophys Res Commun 145: 1171-1176, 1987; Marsh W and Center M S: Cancer Res 47: 5080-5086, 1987; McGrath T, et al, Biochem Pharmacol 38: 3611-3619, 1989; Marquardt D, et al, Cancer Res 50: 1426-1430, 1990; Marquardt D and Center M S: J Natl Cancer Inst 83: 1089-1109, 1991; Krishnamachary N and Center M S; Cancer Res 53: 3658-3661, 1993). Every 4 weeks, these HL-60-RV and HL-60-R8 sublines were exposed to 41 nM DAU for 48 h to stabilize their MDR phenotype. This concentration of DAU, which is not cytotoxic to MDR HL-60 sublines, was removed from the culture medium at least 48 h before experimentation. […] RFs were determined by dividing the IC50 of the MDR cells by that of the sensitive WT parent cell line.
Drug-induced DNA cleavage was determined by intact chromatin precipitation, using L1210, HL-60-S, HL-60-RV and HL-60-R8 cells which were prelabeled with 1 μCi of ^3H-thymidine for 2 h at 37° C., washed with 3×1 ml of ice-cold PBS, collected by centrifugation, and resuspended in fresh FCS-containing RPMI 1640 medium at a density of about 1×10^6 cells/0.5 ml for L1210 and 0.5×10^6 cells/0.5 ml for HL cells. Except when otherwise specified, such cells containing prelabeled DNA were then exposed for 24 h to TTs and drugs known to induce DNA fragmentation. After centrifugation at 200×g for 10 min to discard the drugs and wash the cells, the intact cell pellets were lysed for 30 min in 0.5 ml of HLB, centrifuged at 12,000×g for 30 min to collect the supernatants, and resuspended in 0.5 ml of HLB. After another similar centrifugation, the radioactivities in the pooled supernatants (detergent-soluble low molecular weight DNA fragments) and the pellet (intact chromatin DNA) were determined by LSC: % DNA fragmentation=[cpm in supernatant/cpm in supernatant+pellet]×100. Before being counted in 6 ml of Bio-Safe NA, the intact pelleted chromatin was incubated for 2 h at 60° C. in the presence of 0.6 ml of NCS tissue solubilizer (Amersham).

HL-60-R8 cells [3] = experiment: HL-60-R8 (MDR) cell proliferation assay; type: cell-based, human; conditions: read-out: IC50, inhibition of HL-60-R8 cell proliferation
Description: as §2

HL-60-RV cells [4] = experiment: DNA synthesis in HL-60-RV cells; type: cell-based, human; conditions: for IC50: read-out: IC50, inhibition of DNA synthesis in HL-60-RV cells
HL-60-S cells [5] = experiment: HL-60-S cell viability assay (MTS:PMS); type: cell-based, human
Description: as §2

HL-60-R8 cells [6] = experiment: HL-60-R8 (MDR) cell viability assay (MTS:PMS); type: cell-based, human; conditions: read-out: IC50, decrease of HL-60-R8 cell viability
Description: as §2

L1210 cells = experiment: Protein synthesis (3H-leucine incorporation) in L1210 cells; type: cell-based, murine
Protocol: FIG. 17. Comparison of the concentration-dependent inhibitions of protein synthesis by the TT analog TT2 (●) and DAU (∘) in L1210 cells in vitro. […] Protein synthesis in vehicle-treated control cells was 13,812±1,070 cpm (100±8%; striped area). The blank value (2,436±298 cpm) for cells incubated and pulse-labeled at 2° C. with 2.5 μCi of ^3H-leucine has been substracted from the results.
Except when otherwise specified, the cells were incubated at 37° C. for 90 min in the presence or absence of drugs and then pulse-labeled for an additional 30 min with 1 μCi of [methyl-^3H]thymidine (50 Ci/mmol; Amersham Corp., Arlington Heights, Ill.) to estimate the rate of DNA synthesis. […] After drying the filters, the radioactivity bound to the acid-precipitable material was determined by liquid scintillation counting (LSC) in 10 ml of Bio-Safe NA (Researeh Products International Corp., Mount Prospect, Ill.).

HL-60-R8 cells [7] = experiment: DNA cleavage in HL-60-R8 cells; type: cell-based, human; conditions: HL-60-R8, 24 h
Protocol: as §1
as §2, with “phenotype.” for “phenotype. This concentration of DAU, which is not cytotoxic to MDR HL-60 sublines, was removed from the culture medium at least 48 h before experimentation.”, “line. […]” for “line.”

HL-60-RV cells [8] = experiment: DNA cleavage in HL-60-RV cells; type: cell-based, human; conditions: 24 h
Protocol: as §1
as §2, with “phenotype.” for “phenotype. This concentration of DAU, which is not cytotoxic to MDR HL-60 sublines, was removed from the culture medium at least 48 h before experimentation.”, “line. […]” for “line.”

HL-60-RV cells [9] = experiment: cells; type: cell-based, human; conditions: for IC50: read-out: IC50, decrease of HL-60-RV cell viability
Description: as §2

[10] = HL-60-RV and HL-60-R8 vs HL-60-S
[11] = HL-60-RV and HL-60-R8 vs HL-60-S, day 2
[12] = HL-60-RV and HL-60-R8 vs HL-60-S, day 4

## COC1=C(Br)C(=O)C2=C(C1=O)C1C3=C(C(=O)C=C(N(C)C)C3=O)C2c2ccccc21 (centres unmarked) [TT16, 2-Bromo-3-methoxy-6-(dimethylamino)-9,10-dihydro-9,10-[1′,2′]benzenoanthracene-1,4,5,8-tetraone]
[1]
  IC50: 5600 nM

## COC1=CC(=O)C2=C(C1=O)C1C3=C(C(=O)C=CC3=O)C2c2ccccc21 (centres unmarked) [TT2, 2-Methoxy-9,10-dihydro-9,10-[1′,2′]benzenoanthracene-1,4,5,8-tetraone]
HL-60-S cells [2]; 4 μM
  DNA cleavage, % above control level: 37%
HL-60-S cells [2]; 10 μM
  DNA cleavage, % above control level: 14%
HL-60-S cells [2]; 25 μM
  DNA cleavage, % below control level: 11%
HL-60-S cells [2]; HL-60-S
  times greater TT2 than DAU concentrations needed for more than 50% of DNA cleavage: at least 2.5 times
HL-60-R8 cells [3]; day 2
  IC50: 350 nM
HL-60-R8 cells [3]; day 4
  IC50: 290 nM
HL-60-RV cells [4]; [10]
  RFs, DNA synthesis (IC50 of MDR cells / IC50 of WT HL-60-S): 1.2
HL-60-RV cells [4]
  IC50: 2100 nM
HL-60-S cells [5]; HL-60-S
  times TT2 inhibits viability less effectively than DAU: 15 times
HL-60-S cells [5]; HL-60-S, HL-60-RV and HL-60-R8, day 4, read-out: IC50 values, decrease of cell viability, range over the three lines
  IC50: 230 to 350 nM
HL-60-S cells [5]; day 2, read-out: IC50, decrease of HL-60-S cell viability
  IC50: 1300 nM
HL-60-S cells [5]; day 4, read-out: IC50, decrease of HL-60-S cell viability
  IC50: 230 nM
HL-60-R8 cells [6]; day 2
  IC50: 1600 nM
HL-60-R8 cells [6]; day 4
  IC50: 350 nM
[1]
  IC50: 8000 nM
L1210 cells; 3 h drug + 1 h pulse-labeling, read-out: IC50, inhibition of protein synthesis in L1210 cells
  IC50: 6000 nM and ~6000 nM
HL-60-R8 cells [7]
  reduction of the peak of maximal DNA cleavage relative to HL-60-S cells: 35%
HL-60-RV cells [8]
  reduction of the peak of maximal DNA cleavage relative to HL-60-S cells: 39%
HL-60-RV cells [9]; [11]
  RFs, cell viability (IC50 of MDR cells / IC50 of WT HL-60-S): 0.9-1.2
HL-60-RV cells [9]; [12]
  RFs, cell viability (IC50 of MDR cells / IC50 of WT HL-60-S): 1.5
HL-60-RV cells [9]; day 2
  IC50: 1100 nM
HL-60-RV cells [9]; day 4
  IC50: 340 nM

## COc1cccc2c1C(=O)c1c(O)c3c(c(O)c1C2=O)C[C@@](O)(C(C)=O)C[C@@H]3O[C@H]1C[C@H](N)[C@H](O)[C@H](C)O1 [DAU, daunomycin, reference compound]
HL-60-S cells [2]; 1.6 μM, control 15% DNA fragmentation
  DNA cleavage, % above control level: 67%
HL-60-S cells [2]; 4 μM
  DNA cleavage, % above control level: 18%
HL-60-S cells [2]; 10 μM
  DNA cleavage, % below control level: 11%
HL-60-S cells [2]; 25 μM
  DNA cleavage, % below control level: 14%
HL-60-S cells [2]; 0.04-0.64 μM DAU
  DNA cleavage, % above control level (submaximal): 11-58%
HL-60-R8 cells [3]; Homo sapiens, 48 h
  IC50: 320 nM
HL-60-R8 cells [3]; Homo sapiens, 96 h
  IC50: 225 nM
HL-60-RV cells [4]; [10]
  RFs, DNA synthesis (IC50 of MDR cells / IC50 of WT HL-60-S): 8.1-11.9
  times MDR sublines are less sensitive, DNA synthesis: 10 times
HL-60-RV cells [4]; Homo sapiens
  IC50: 2500 nM
HL-60-S cells [5]; Homo sapiens, 48 h, read-out: IC50, decrease of HL-60-S cell viability
  IC50: 80 nM
HL-60-S cells [5]; Homo sapiens, 96 h, read-out: IC50, decrease of HL-60-S cell viability
  IC50: 15 nM
HL-60-R8 cells [6]; Homo sapiens, 48 h
  IC50: 2500 nM
HL-60-R8 cells [6]; Homo sapiens, 96 h
  IC50: 380 nM
L1210 cells; L1210
  times DAU inhibits protein synthesis more effectively than TT2: ~3 times
HL-60-R8 cells [7]
  reduction of the peak of maximal DNA cleavage relative to HL-60-S cells: 60%
HL-60-RV cells [8]
  reduction of the peak of maximal DNA cleavage relative to HL-60-S cells: 79%
HL-60-RV cells [9]; [10]
  times less potent as cytotoxic agent in MDR than in WT HL-60 cells: about 28 times
HL-60-RV cells [9]; [11]
  RFs, cell viability (IC50 of MDR cells / IC50 of WT HL-60-S): 23.8-31.3
HL-60-RV cells [9]; [12]
  RFs, cell viability (IC50 of MDR cells / IC50 of WT HL-60-S): 25.3-30.0
HL-60-RV cells [9]; Homo sapiens, 96 h
  IC50: 450 nM
